Results published in article PMC6422423, “Constitutively active BRS3 is a genuinely orphan GPCR in placental mammals” (PLoS Biology, 2019).

How the values were obtained:
[1] = test system: BRS3 receptors in placental mammals; assay: ERK1/2 phosphorylation, placental pooled; type: cell-based, human, mouse, dog, and aardvark; settings: 1,000 nM peptide, 0/2/5 min, HEK293
Description: (§1) For ERK1/2 phosphorylation, HEK293 cells were seeded in 24-well plates and transfected with GRPR, NMBR, BRS3, mutants of different species’ BRS3, or an empty vector plasmid, pcDNA3.1-V5-His plasmid (300 ng). […] Each sample with an equal amount of protein was mixed with 6×SDS sample buffer, boiled for 5 min, and separated on 10% SDS-polyacrylamide gel electrophoresis (PAGE) before transferring the proteins onto a PVDF membrane. The membranes were then blocked at room temperature for 1 h with 5% milk powder in Tris-buffered saline-Tween (TBST), followed by subsequent incubation at 4°C overnight in TBST containing the different primary antibodies (1:1,000 dilution). After washing three times (10 min each time) with TBST, the membranes were incubated for 1 h in TBST containing the secondary antibodies (1:2,000 dilution), followed by washing three times (10 min each time) with TBST, prior to detection by chemiluminescence.

aardvark BRS3 (aBRS3) [2] = assay: Intracellular calcium assay (WT and mutants); type: cell-based, Orycteropus afer; settings: for Calcium fold: 10 nM peptide, HEK293, Fluo8, aBRS3; for Intracellular Ca2+, mutants (in words): aBRS3 R127Q, S205P, and H294R, all three
Description: (§2) Intracellular calcium was measured using the non-wash calcium assay Fluo8 kit (ab112129, Abcam) according to the manufacturer’s instructions. Briefly, HEK293 cells were seeded in 24-well plates and were transfected with GRPR, NMBR, BRS3, or the empty vector plasmid pcDNA3.1-V5-His (300 ng) and incubated overnight at 37°C with 5% CO2. The next day, the cells were replated into a 96-well assay plate (black plate and clear bottom). After 12 h, growth media were aspirated, and calcium dye was added. […] The basal fluorescence intensity was recorded 15 times at 1 Hz for […]. The results were normalized to the average basal fluorescence intensity in ratio, and the peak response was used for the result calculation. Calcium fold was calculated using no stimulation data as standard value.

mouse BRS3 (mBRS3) [3] = assay: Intracellular calcium assay (WT and mutants); type: cell-based; settings: for Calcium fold: 10 nM peptide, HEK293, Fluo8, mBRS3; for Intracellular Ca2+, mutants (in words): mBRS3 R127Q, S205P, and H294R, all three
Description: as §2

human BRS3 (hBRS3) [4] = assay: Intracellular calcium assay (WT and mutants); type: cell-based; settings: 10 nM peptide; for Calcium fold: HEK293, Fluo8, hBRS3; for Intracellular Ca2+, mutants vs wild type (in words): hBRS3 R127Q, S205P, and H294R, each
Description: as §2

[5] = test system: BRS3 receptors in placental mammals; assay: Intracellular calcium assay, placental pooled; type: cell-based, human, mouse, dog, and aardvark; settings: 10 nM peptide, HEK293
Description: as §2

spotted gar BRS3 (sBRS3) [6] = assay: Radioligand binding (competition); parameters: species or system Lepisosteus oculatus; settings: transfected HEK293 cells, 1 h 21°C, pH 7.4, mean ± SE, at least three experiments
Description: HEK293 cells were seeded in a 10-cm tissue culture dish at a density of 10^6 cells per dish and grown overnight at 37°C in growth medium. The following morning, 5 μg of different species’ BRS3 plasmids were transfected. After 6 h, the medium was replaced with growth medium. Cells were maintained at 37°C in a 5% CO2 atmosphere and used 48 h later for binding assays. The positive control group included transfected GRPR and NMBR; the test group consisted of transfected BRS3 from different species. Then, [^125I]-Tyr^42-GRP and [^125I]-Tyr-NMB were used as the ligands to assess affinity to the various receptors. […] The cell concentration was adjusted to between 0.05 and 4 × 10^6 cells/ml for each receptor such that less than 20% of the total added radioactive ligand was bound during the incubation, and the results were compared to cells transfected with GRPR or NMBR adjusted in concentration to bind a similar amount of ligand. After the incubation, 100 μl aliquots were added to 1.5-ml microfuge tubes, which contained 100 μl of binding buffer to determine the total radioactivity. The bound tracer was separated from unbound tracer by pelleting the cells through the binding buffer by centrifugation at 10,000g in a Microfuge E (Beckman) for 3 min. The supernatant was aspirated, and the pelleted cells were rinsed twice with a washing buffer that contained 1% (w/v) BSA in PBS. The amount of radioactivity bound to the cells was measured in a Cobra II Gamma counter (Packard Instruments). Binding was expressed as the percentage of total radioactivity that was associated with the cell pellet. All binding values represented saturable binding; nonsaturable binding was <15% of the total binding in all experiments. Each point was measured in duplicate, and each experiment was replicated at least four times. […] All the experiment data were calculated using 1 pM ligand-treated as 100% control.

aardvark BRS3 (aBRS3) [7] = assay: ERK1/2 phosphorylation (WT and mutants); type: cell-based, Orycteropus afer; settings: aBRS3 R127Q, S205P, and H294R, all three
Description: as §1

spotted gar BRS3 (sBRS3) [8] = assay: Intracellular calcium assay (WT and mutants); type: cell-based, Lepisosteus oculatus; settings: for Calcium fold: 10 nM peptide, HEK293, Fluo8, sBRS3; for Intracellular Ca2+, mutants (in words): sBRS3 Q127R, P205S, and R294H
Description: as §2

mouse BRS3 (mBRS3) [9] = assay: ERK1/2 phosphorylation (WT and mutants); type: cell-based; settings: mBRS3 R127Q, S205P, and H294R, all three
Description: as §1

human BRS3 (hBRS3) [10] = assay: ERK1/2 phosphorylation (WT and mutants); type: cell-based
Description: as §1

[11] = test system: BRS3 receptors of placental mammals; assay: Luciferase reporter, GRP/NMB stimulated, placental pooled; type: cell-based, human, mouse, dog, and aardvark; settings: CRE/NFAT-RE/SRF-RE/SRE reporters; 0/10/100/1,000 nM, 12 h, HEK293
Description: To detect constitutive activity of BRS3, HEK293 cells were seeded in 24-well plates and cotransfected with the CRE/NFAT-RE/SRF-RE/SRE luciferase reporter plasmids (50 ng), the BRS3 from different species, or BRS3 mutants with different doses (10 ng/50 ng/150 ng); after 24 h, cells were further incubated in serum-free media for another 12 h before luciferase assay. As for peptide supplementation treatment, HEK293 cells were cotransfected with the CRE/NFAT-RE/SRF-RE/SRE luciferase reporter plasmids (50 ng) and various genes (300 ng) of the bombesin receptor family. […] Luciferase activities were determined using luciferase assay kits (Beyotime, Shanghai, China) and normalized to β-galactosidase activity. All experiments were performed at least three times in triplicates. HEK293 cells transfected with pcDNA were used as a blank control in all luciferase experiments, and the fold was calculated compared to blank control.

turtle BRS3 (tBRS3) = assay: ERK1/2 phosphorylation (WT and mutants); type: cell-based, Chrysemys picta
Description: as §1

## GSHWAVGHLM-NH2 [GRP, gastrin-releasing peptide]
[1]
  ERK phosphorylation (in words): could not be activated
Aardvark BRS3 (aBRS3) [2]; replicate 1
  Calcium fold: 1.0918 fold
Aardvark BRS3 (aBRS3) [2]; replicate 2
  Calcium fold: 1.1902 fold
Aardvark BRS3 (aBRS3) [2]; replicate 3
  Calcium fold: 1.2372 fold
Aardvark BRS3 (aBRS3) [2]
  Intracellular Ca2+, mutants (in words): significant increase in cellular Ca^2+ ions levels
Mouse BRS3 (mBRS3) [3]; replicate 1
  Calcium fold: 1.0113 fold
Mouse BRS3 (mBRS3) [3]; replicate 2
  Calcium fold: 1.0374 fold
Mouse BRS3 (mBRS3) [3]; replicate 3
  Calcium fold: 1.111 fold
Mouse BRS3 (mBRS3) [3]
  Intracellular Ca2+, mutants (in words): significant increase in cellular Ca^2+ ions levels
Human BRS3 (hBRS3) [4]; replicate 1
  Calcium fold: 1.1274 fold
Human BRS3 (hBRS3) [4]; replicate 2
  Calcium fold: 1.2515 fold
Human BRS3 (hBRS3) [4]; replicate 3
  Calcium fold: 1.1684 fold
Human BRS3 (hBRS3) [4]
  Intracellular Ca2+, mutants vs wild type (in words): remarkable increase of cellular Ca^2+ ions
[5]
  Intracellular Ca2+ (in words): no stimulation was observed
Spotted gar BRS3 (sBRS3) [6]; 50 pM [125I]-Tyr42-GRP
  IC50: 0.17 nM
Spotted gar BRS3 (sBRS3) [6]; 50 pM [125I]-Tyr-NMB
  IC50: 0.54 nM
Aardvark BRS3 (aBRS3) [7]
  ERK phosphorylation, mutants (in words): lead to ERK phosphorylation signal
Spotted gar BRS3 (sBRS3) [8]; replicate 1
  Calcium fold: 4.5257 fold
Spotted gar BRS3 (sBRS3) [8]; replicate 2
  Calcium fold: 4.9378 fold
Spotted gar BRS3 (sBRS3) [8]; replicate 3
  Calcium fold: 5.3682 fold
Spotted gar BRS3 (sBRS3) [8]
  Intracellular Ca2+, mutants (in words): significant effects
Mouse BRS3 (mBRS3) [9]
  ERK phosphorylation, mutants (in words): lead to ERK phosphorylation signal
Human BRS3 (hBRS3) [10]; hBRS3 H294R
  ERK phosphorylation, mutant (in words): could be detected
Human BRS3 (hBRS3) [10]; hBRS3 R127Q
  ERK phosphorylation, mutant (in words): could be detected
Human BRS3 (hBRS3) [10]; hBRS3 S205P
  ERK phosphorylation, mutant (in words): the effect is not obvious
[11]
  Luciferase stimulation (in words): stimulation of luciferase units cannot be detected
Turtle BRS3 (tBRS3); tBRS3 P205S
  ERK phosphorylation, mutant (in words): the effect is not obvious
Turtle BRS3 (tBRS3); tBRS3 Q127R
  ERK phosphorylation, mutant (in words): almost could not be detected
Turtle BRS3 (tBRS3); tBRS3 R294H
  ERK phosphorylation, mutant (in words): almost could not be detected

## neuromedin B [NMB]
[1]
  ERK phosphorylation (in words): could not be activated
Aardvark BRS3 (aBRS3) [2]
  Intracellular Ca2+, mutants (in words): significant increase in cellular Ca^2+ ions levels
Mouse BRS3 (mBRS3) [3]
  Intracellular Ca2+, mutants (in words): significant increase in cellular Ca^2+ ions levels
Human BRS3 (hBRS3) [4]
  Intracellular Ca2+, mutants vs wild type (in words): remarkable increase of cellular Ca^2+ ions
[5]
  Intracellular Ca2+ (in words): no stimulation was observed
Spotted gar BRS3 (sBRS3) [6]; 50 pM [125I]-Tyr42-GRP
  IC50: 1.74 nM
Spotted gar BRS3 (sBRS3) [6]; 50 pM [125I]-Tyr-NMB
  IC50: 2.65 nM
Aardvark BRS3 (aBRS3) [7]
  ERK phosphorylation, mutants (in words): lead to ERK phosphorylation signal
Spotted gar BRS3 (sBRS3) [8]
  Intracellular Ca2+, mutants (in words): significant effects
Mouse BRS3 (mBRS3) [9]
  ERK phosphorylation, mutants (in words): lead to ERK phosphorylation signal
Human BRS3 (hBRS3) [10]; hBRS3 H294R
  ERK phosphorylation, mutant (in words): could be detected
Human BRS3 (hBRS3) [10]; hBRS3 R127Q
  ERK phosphorylation, mutant (in words): could be detected
Human BRS3 (hBRS3) [10]; hBRS3 S205P
  ERK phosphorylation, mutant (in words): the effect is not obvious
[11]
  Luciferase stimulation (in words): stimulation of luciferase units cannot be detected
Turtle BRS3 (tBRS3); tBRS3 P205S
  ERK phosphorylation, mutant (in words): the effect is not obvious
Turtle BRS3 (tBRS3); tBRS3 Q127R
  ERK phosphorylation, mutant (in words): almost could not be detected
Turtle BRS3 (tBRS3); tBRS3 R294H
  ERK phosphorylation, mutant (in words): almost could not be detected
